In patent US8680014B2, “Methods for improving fruit production and fruit quality” (Washington State University Research Foundation, priority 2010, dated 2014):
Entries after “also recorded” stand apart in the source; their conditions may differ. Marks after values point to notes of the source that are not given here.

Experiments:
[1] = tested on: Sweet cherry cv. ‘Bing’ trees; assay: BABA spray in the field; flower fate of limbs in programmable freeze chamber; fruit set, fruit size, leaf area, leaf chlorophyll on other limbs; format: in vivo, sweet cherry (Prunus avium)
Experimental: Sweet cherry cv. ‘Bing’ trees were sprayed in the field with BABA and the fate of flowers from randomly selected sample limbs placed in a programmable freeze chamber was evaluated. Random limbs were removed from the freeze chamber within 10 minutes of reaching selected air temperatures, and were left at room temperature for 1 hour. Pistil/ovary survival was then assessed visually on every flower. Flowers with healthy green stylar and ovary tissue were rated as live. Flowers with discolored (for example, brown) stylar or ovary tissues were rated as dead. Fruit set, fruit size, average leaf area, and leaf chlorophyll content index were evaluated on other limbs of the treated trees.

[2] = tested on: ‘Fuji’ apple trees; assay: BABA at different bud development stages; branches in programmable freeze chamber five days later; format: in vivo, apple (Malus domestica); details: treated 5 days before cold exposure; all developmental stages, except for full opened flowers; compared to control
Experimental: BABA was also applied to ‘Fuji’ apple trees at different bud development stages. Five days later, treated and untreated (control) branches were collected and placed in a programmable freeze chamber. Flowers killed were evaluated as described above. BABA decreased the percentage of flowers killed as compared to control at all developmental stages, except for full opened flowers (FIG. 2).

[3] = tested on: sweet cherry cultivar ‘Bing’; assay: Autumn application of BABA, natural frost damage the following spring; format: in vivo, sweet cherry (Prunus avium)
Text: (§1) Application of BABA to sweet cherry cultivars ‘Bing,’ ‘Chelan,’ and ‘Van’ in autumn decreased the percentage of flowers killed after natural frost damage the following spring (FIG. 3). […] Bing after spring frost damage (FIG. 4).

[4] = tested on: sweet cherry cultivar ‘Chelan’; assay: as above; format: in vivo, sweet cherry (Prunus avium)
Text: as §1

[5] = tested on: sweet cherry cultivar ‘Van’; assay: as above; format: in vivo, sweet cherry (Prunus avium)
Text: as §1

[6] = tested on: plum cv. ‘PP7524-7’; assay: BABA application in the spring 4-7 days prior to frost exposure; format: in vivo; details: application 4-7 days prior to frost; following spring frost damage
Text: Finally, BABA application in the spring 4-7 days prior to frost exposure increased fruit set in plum cv. ‘PP7524-7’ following spring frost damage (FIG. 5).

[7] = tested on: sweet cherry cv. ‘Bing’; assay: CPA applied at full bloom; fruit set and fruit size at harvest; format: in vivo, sweet cherry (Prunus avium)
Experimental: Plant growth regulators were applied to limbs of sweet cherry cv. ‘Bing’ at full bloom when essentially all flowers were open. Fruit set was recorded as a percent of available flowers from flower counts made prior to application and fruit counts made just prior to harvest. Fruit set in trees treated with 4-chlorophenoxyacetic acid (CPA) at 10 or 30 ppm was higher than untreated control in both small and large scale trials (FIG. 18). […] (Table 2).

[8] = tested on: sweet cherry cultivar ‘Tieton’; assay: as above; format: in vivo, sweet cherry (Prunus avium); details: 30 ppm CPA at full bloom
[9] = tested on: sweet cherry cultivar ‘8011-3’; assay: as above; format: in vivo, sweet cherry (Prunus avium); details: 30 ppm CPA at full bloom
[10] = tested on: sweet cherry cv ‘Bing’ on ‘Gisela® 1’ rootstock; assay: Experiment 1: limb trial of PCa and GAs alone or in combination, applied 30 days after anthesis; format: in vivo, sweet cherry (Prunus avium); details: for Firmness / Fruit diameter / Fruit weight / TSS: applied at 30 days after anthesis, PCa 150 mg/L, GAs 30 mg/L, at harvest
Experimental: (§2) A limb trial was conducted to evaluate effects of bioactive gibberellins (GA), prohexadione-calcium (PCa), or combinations applied before harvest on fruit quality of sweet cherry. The most efficacious treatments were utilized in a larger scale trial to investigate their effects on the whole tree scale and postharvest characteristics of fruit. Twelve-year-old sweet cherry cv ‘Bing’ on ‘Gisela® 1’ rootstock was selected for both experiments and trained to a central leader architecture. Both trials were carried out at Washington State University Roza farm, Prosser, Wash., USA (N 46.2°, W 119.7°).
Three limbs with uniform vigor were selected from each of 10 trees. Treatments were applied to the limbs randomly spread across ten trees at 30 days after anthesis, approximately coinciding with the onset of pit hardening (stage II of fruit development) in ‘Bing’. The experiment consisted of 10 treatments, including water (the untreated control) and PCa at 150 mg/L. Bioactive GA1, GA3, and GA4/7 (70:30 GA4:GA7) were applied as a foliar spray at 30 mg/L alone or in combination with PCa at 150 mg/L. In addition, the combination of GA3 and GA4/7 at 30 mg/L was applied, or in combination with PCa at 150 mg/L. PCa was the commercial product Apogee® (27.5% PCa; BASF Corp., Research Triangle Park, N.C.) and all bioactive GAs (purity >90%) were purchased from OlChemIm Ltd. (Olomouc, Czech Republic). Each treatment was made with a pressurized handgun sprayer to entire limbs, ceasing at the first runoff.
Twenty fruit per treatment were randomly selected and flagged for monitoring fruit growth by measuring fruit equatorial diameter and height weekly after treatment. All current-season shoots on treated limbs were measured weekly to investigate treatment effects on shoot growth. Harvest timing was determined as the day when the majority of fruit had achieved commercial maturity, based on exocarp color. At harvest, all fruit on treated limbs were harvested and transported to the laboratory for fruit quality analysis. Floral bud density on the treated limbs was assessed by counting all spurs and the number of reproductive buds per spur.
All fruit from each limb in Experiment 1 and sub-samples from Experiment 2 were weighed individually and fruit size distribution was calculated according to fruit weight. Color sorting was conducted manually according to the color comparators developed by CTIFL (Centre Technique Interprofessionnel des Fruit et Legumes, France), which categorize cherry color into 8 levels from Green, CTIFL 1 to CTIFL 7. Fruit number in each category was counted and color distribution was assessed. Subsequently, all fruit were analyzed for firmness and row size measurement with a FirmTech 2 (BioWorks, Inc, Wamego, Kans.) at room temperature. Then, 25 fruit were randomly selected and 5 groups of 5 fruit were mixed for soluble solids content, pH and titratable acidity measurement. Fruit soluble solids were measured using a digital refractometer (Atago, Japan). Approximately 0.5 mL of juice was dropped directly onto the surface of the refractometer and the measurement immediately taken. Juice pH and titratable acidity were measured with a Mettler DL12 Titrator (Mettler-Toledo, Columbus, Ohio).
All trials were established as randomized complete-block designs. All data were subjected to analysis of variance using the General Linear Models (GLM) program of the SAS statistical analysis package (SAS Institute, Cary, N.C.).

[11] = tested on: sweet cherry cv ‘Bing’ on ‘Gisela® 1’ rootstock; assay: Experiment 2: whole tree trial of PCa alone or with GA3 or GA4/7, applied 30 (FS) or 37 (SS) days after anthesis; fruit quality, storability, sensory analysis; format: in vivo, sweet cherry (Prunus avium)
Experimental: as §2
Experiment 2 included treatments at the whole tree level. Applications of GA3 or GA4/7 (70:30 GA4:GA7) were made to entire trees at 30 mg/L in combination with PCa at 150 mg/L. PCa (150 mg/L) alone was also applied and an untreated control treatment was included. To investigate the role of application timing of plant growth regulators, all treatments were applied at 30 (first spray (FS)) or 37 days after anthesis (second spray (SS)). In this experiment, 24 trees in the same orchard as those in Experiment 1 were selected for whole tree treatment and assigned randomly into one of two 12-tree groups for the timing study. Treatments were then randomly assigned to each of three trees per application timing. Treatments were applied to entire trees by pressurized handgun sprayer to the point of first runoff. All applications were completed in the morning between 0800 and 1100, and applied on days with little or no wind. To prevent spray drift onto neighboring experimental units, all the trees were selected in the same row and 2-3 trees were selected as ‘border’ trees between experimental units.
Twenty fruit per treatment were marked for weekly fruit size measurement, and six current terminal shoots were selected for monitoring shoot growth weekly after treatment. […] Whole tree yield was determined at harvest, in the field, with a portable digital scale. The effect of treatment on total yield per tree (kg tree^−1) and the yield of large fruit (29.8 mm+) (kg tree^−1) was assessed. […]
All fruit from each limb in Experiment 1 and sub-samples from Experiment 2 were weighed individually and fruit size distribution was calculated according to fruit weight. […] Fruit number in each category was counted and color distribution was assessed. Subsequently, all fruit were analyzed for firmness and row size measurement with a FirmTech 2 (BioWorks, Inc, Wamego, Kans.) at room temperature. […] Fruit soluble solids were measured using a digital refractometer (Atago, Japan). […] Juice pH and titratable acidity were measured with a Mettler DL12 Titrator (Mettler-Toledo, Columbus, Ohio). […]

[12] = BABA at both concentrations (100 and 500 ppm), compared to control

CC(N)CC(=O)O (racemic) [BABA, DL-β-aminobutyric acid]
percentage of flowers killed ([1]; 100 ppm BABA, −3.5° C. and −4.5° C., compared to control (untreated) trees): decreased
percentage of flowers killed ([1]; 500 ppm BABA, compared to control): decreased
average leaf area [1, 12]: increased
fruit set [1, 12]: increased
fruit size [1, 12]: increased
leaf chlorophyll content index [1, 12]: increased
percentage of flowers killed [2]: decreased
pistil survival ([3]; after spring frost damage): increased
percentage of flowers killed ([3]; natural frost the following spring): decreased
percentage of flowers killed [4]: decreased
percentage of flowers killed [5]: decreased
fruit set [6]: increased

O=C(O)COc1ccc(Cl)cc1 [4-CPA, 4-chlorophenoxyacetic acid]
fruit set compared with untreated control ([7]; CPA at 10 or 30 ppm at full bloom, small and large scale trials (FIG. 18)): higher
Fruit Set (%) ([7]; ‘Bing’, 30 ppm CPA applied to the flowers at full bloom, untreated 30.0): 58.0%
Average fruit size ([7]; ‘Bing’, 30 ppm CPA at full bloom, at harvest, untreated 7.3): 8.4 g
Average fruit size ([8]; at harvest, untreated 7.2): 8.6 g
Fruit Set (%) ([8]; untreated 26.0): 35.0%
Average fruit size ([9]; at harvest, untreated 10.5): 13.6 g
Fruit Set (%) ([9]; untreated 7.0): 16.0%

C=C1C[C@]23C[C@@]1(O)CC[C@H]2[C@@]12CC[C@H](O)[C@@](C)(C(=O)O1)[C@H]2[C@@H]3C(=O)O [GA1, gibberellin A1]
Firmness [10]: 280.2^c g/mm
Fruit diameter [10]: 26.52^bc mm
Fruit weight [10]: 8.44^bc g
TSS [10]: 20.84^b Brix

C=C1C[C@]23C[C@@]1(O)CC[C@H]2[C@@]12C=C[C@H](O)[C@@](C)(C(=O)O1)[C@H]2[C@@H]3C(=O)O [GA3, gibberellin A3]
Firmness [10]: 316.9^a g/mm
Fruit diameter [10]: 26.49^bc mm
Fruit weight [10]: 8.23^cd g
TSS [10]: 22.23^a Brix

CCC(=O)C1=C(O)CC(C(=O)O)CC1=O (stereo not shown) [PCa, calcium 3-oxido-4-propionyl-5-oxo-cyclohexene carboxylate]
Firmness [10]: 278.3^c g/mm
Fruit diameter [10]: 24.75^f mm
Fruit weight [10]: 7.26^f g
TSS [10]: 19.18^cd Brix
effect on fruit weight / fruit size compared with the untreated control ([10]; limb trial, single application at 30 days after anthesis): no positive effect
length of current season extension shoots relative to untreated ([10]; single application, after terminal bud set (FIG. 8)): less than half the length
fruit categorized as healthy after storage ([11]; 30 days at 4° C., spray timing not stated, 5% for untreated trees): < 10%
increase in fruit in the ≧10 g category compared to the control ([11]; both first and second spray timings): 15%
percentage of fruit with green and turgid pedicels after storage ([11]; first spray treatments, control 30%): 24%
shoot growth / vegetative extension growth ([11]; single spray, irrespective of timing, compared with the control and PCa+GAs): reduced; also recorded: reductions
